Results taken from US20030027820A1, “Method for treating fibrotic diseases or other indications V” (Alteon, Inc., priority 2001, published 2003).
Where a name gives a salt, the structure may show the parent alone.

Tests used:
[1] = tested on: collagen in cardiovascular tissues; assay: Mass of collagen in cardiovascular tissues after treatment; format: in vivo
Excerpt: (§1) Cardiovascular risk correlates more closely with the systolic and the pulse pressure than with the diastolic pressure. In diabetic patients, the cardiovascular risk profile of diabetic patients is strongly correlated to duration of diabetes, glycemic control and blood pressure. Structural matrix proteins contribute to the function of vessels and the heart, and changes in the physical behavior of cardiovascular walls are believed to be important determinants of circulatory function. In elderly individuals, the loss of compliance in the aorta leads to isolated systolic hypertension, which in turn expands the arterial wall and thereby diminishes the dynamic range of elasticity. Loss of compliance also results in the development of left ventricular hypertrophy.

[2] = tested on: Type IV collagen; assay: In situ hybridization studies, Type IV collagen; format: in vivo
Excerpt: as §1

[3] = Phase IIa clinical trial; format: in vivo, human
Excerpt: When the heart pumps blood into the vascular system, the ability of the arteries to expand helps to push blood through the body. When arteries become stiff, as they do in the natural process of aging, the ability of the arteries to expand is diminished and also has consequences for the heart. The heart has to work harder to pump the blood into the stiff arteries, and eventually hypertrophies (enlarges in size) to accomplish this. A hypertrophied heart is an inefficient pump, and is one of the disorders that leads to congestive heart failure. […] The potential clinical benefit of this is to lessen the effort that the heart must expend to push blood throughout the body. The effect is also believed to contribute to preventing hypertrophy and subsequent inefficiency of the heart, which inefficiency would contribute to congestive heart failure.
Atherosclerosis is a disease that involves deposition of blood lipids in plaque in the arteries throughout the body. In coronary arteries, accumulation of plaque progressively leads to reduced coronary flow, with occlusion of the arteries causing focal death of cardiac tissue (myocardial infarction, heart attack). If the amount of tissue that dies is large enough, death ensures. […] Reducing local deposits of plaque should eventually lessen the risk of myocardial infarction and death due to heart attacks.
Pulse pressure is the difference between systolic and diastolic blood pressure. In a young human, systolic pressure is typically 120 mm Hg and diastolic pressure is 80 mm Hg, resulting in a pulse pressure of 40 mm Hg. With age, in many individuals pulse pressure increases, largely due to the increase in systolic pressure that results from stiff vessel disease. In individuals with pulse pressure greater than 60 mm Hg there is an increased risk of death from cardiovascular morbidities.

[4] = Dog model for diabetes, ventricular elasticity; format: in vivo
Excerpt: as §1

[5] = In vivo studies of vascular stiffening in rodents, canines and primates
Excerpt: as §1

[6] = tested on: TGFbeta; assay: In situ hybridization studies, TGFbeta; format: in vivo
Excerpt: as §1

## Cc1sc[n+](CC(=O)c2ccccc2)c1C [3-[2-phenyl-2-oxoethyl]-4,5-dimethyl-thiazolium salt]
[1]
  mass of collagen in cardiovascular tissues: reduction in the mass of collagen in cardiovascular tissues
[2]
  expression of Type IV collagen: reduces the expression of both Type IV collagen and TGFbeta
[3]; Phase IIa clinical trial
  stiffness of arteries, as measured by the ratio of stroke volume (ml) to pulse pressure (mm Hg): showed an ability to reverse the stiffness of arteries
[3]; Phase IIa trial
  amount of circulating triglycerides (lipids): increased the amount of circulating triglycerides
[3]; Phase IIa trial, believed to be the primary cause of the pulse pressure decrease
  systolic blood pressure: lowering the systolic blood pressure
[3]; Phase IIa trial, elderly patients with pulse pressures greater than 60 mm Hg
  pulse pressure: reduced pulse pressure in elderly patients with pulse pressures greater than 60 mm Hg in a statistically significant manner
[4]
  end diastolic pressure (indicator of ventricular elasticity): returned to a value at about the mid-point between the disease impaired value and the value for control dogs
  end diastolic volume (indicator of ventricular elasticity): returned to a value at about the mid-point between the disease impaired value and the value for control dogs
[5]
  vascular stiffening: substantially ameliorating vascular stiffening
[6]
  expression of TGFbeta: reduces the expression of both Type IV collagen and TGFbeta
